Test results published in ChEMBL document CHEMBL1201862, “PubChem BioAssay data set” (2004).
Calls of active or inactive are those of the source.

Tests used:
[1] = biological target: Phospholipase D1 (Homo sapiens, UniProt Q13393); experiment: PLD1 inhibitor potency in cells, dose response (AID 602151); type: functional;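 further: cellular PLD1 assay in Calu-1 cells stimulated with PMA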
[2] = biological target: Phospholipase D2 (Homo sapiens, UniProt O14939); experiment: PLD2 inhibitor potency in cells, dose response (AID 602147); type: functional;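 further: cellular assay in HEK293 cells overexpressing GFP-tagged PLD2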
Chain of Phospholipase D2 (O14939 whole entry): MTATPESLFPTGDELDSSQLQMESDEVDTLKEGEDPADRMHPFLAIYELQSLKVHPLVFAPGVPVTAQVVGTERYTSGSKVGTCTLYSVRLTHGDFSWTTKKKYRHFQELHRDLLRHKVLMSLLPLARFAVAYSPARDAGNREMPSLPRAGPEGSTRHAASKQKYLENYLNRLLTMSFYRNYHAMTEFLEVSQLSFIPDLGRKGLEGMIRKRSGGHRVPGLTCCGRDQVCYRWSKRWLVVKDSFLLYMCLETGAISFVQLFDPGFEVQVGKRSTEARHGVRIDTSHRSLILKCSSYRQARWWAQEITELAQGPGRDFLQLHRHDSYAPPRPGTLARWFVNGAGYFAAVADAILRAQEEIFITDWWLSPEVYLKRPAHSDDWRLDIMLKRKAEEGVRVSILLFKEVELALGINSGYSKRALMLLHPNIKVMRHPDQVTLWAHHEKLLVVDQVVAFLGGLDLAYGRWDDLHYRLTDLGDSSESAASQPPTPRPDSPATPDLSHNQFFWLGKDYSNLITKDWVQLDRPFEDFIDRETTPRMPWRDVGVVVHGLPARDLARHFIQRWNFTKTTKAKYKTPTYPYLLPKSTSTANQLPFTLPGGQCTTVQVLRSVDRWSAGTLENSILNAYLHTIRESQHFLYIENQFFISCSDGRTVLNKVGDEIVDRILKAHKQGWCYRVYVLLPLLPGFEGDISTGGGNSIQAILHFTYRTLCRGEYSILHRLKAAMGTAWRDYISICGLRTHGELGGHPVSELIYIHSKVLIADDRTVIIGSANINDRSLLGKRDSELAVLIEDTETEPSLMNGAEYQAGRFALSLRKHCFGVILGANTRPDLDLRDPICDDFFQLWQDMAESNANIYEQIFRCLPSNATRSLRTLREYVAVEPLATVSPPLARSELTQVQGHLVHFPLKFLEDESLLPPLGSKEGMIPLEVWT

[3] = NIH-3T3 fibroblast cytotoxicity, dose response, cytotoxicity control, cell-based, fluorescence, Alamar Blue, secondary assay (AID 2327); type: functional;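 further: NIH-3T3 mouse fibroblasts cultured with fluconazole at 8 µg/mL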
[4] = inhibitors of firefly luciferase expression or activity, dose response, H4 neuroglioma cells, luminescence (AID 1990); type: functional, cell-based
[5] = Luminescence Cell-Based Dose Response HTS to Identify Inhibitors of 5'UTR Stem-Loop Driven Prion Protein mRNA Translation in H4 Neuroglioblastoma Cells. [Related pubchem assays: 1827 (Project Summary), 1813 (Primary HTS)]; type: functional
[6] = inhibitors of SNCA 5'UTR-driven reporter translation, confirmation, H4 neuroglioma cells, luminescence (AID 1988); type: functional, cell-based
[7] = C. albicans growth with fluconazole, confirmation, fluorescence, retest (AID 2467); type: functional, cell-based
[8] = system: Jurkat; experiment: antigen receptor-induced NF-kB inhibitors, dose response, Jurkat, luciferase reporter, luminescence, B- and T-cell (AID 489004); type: functional, cell-based; conditions: Homo sapiens;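 further: NF-kB luciferase reporter Jurkat cells stimulated with PMA plus ionomycin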
[9] = cytotoxicity in HEK-293T NF-kB-Luc cells, dose response, cytotoxicity control for B/T-cell NF-kB inhibitor project, cell-based, uHTS hits (AID 489019); type: functional;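 further: IC50 reflects cytotoxicity as loss of cell viability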
[10] = biological target: T1, Microphthalmia-associated transcription factor (Homo sapiens, UniProt O75030); experiment: TRPM1 promoter luciferase signal decrease, dose response, MITF inhibitor project, cell-based, SK-MEL-5, cherry-picked, set 3 (AID 493073); type: functional
T1 sequence (O75030 whole entry): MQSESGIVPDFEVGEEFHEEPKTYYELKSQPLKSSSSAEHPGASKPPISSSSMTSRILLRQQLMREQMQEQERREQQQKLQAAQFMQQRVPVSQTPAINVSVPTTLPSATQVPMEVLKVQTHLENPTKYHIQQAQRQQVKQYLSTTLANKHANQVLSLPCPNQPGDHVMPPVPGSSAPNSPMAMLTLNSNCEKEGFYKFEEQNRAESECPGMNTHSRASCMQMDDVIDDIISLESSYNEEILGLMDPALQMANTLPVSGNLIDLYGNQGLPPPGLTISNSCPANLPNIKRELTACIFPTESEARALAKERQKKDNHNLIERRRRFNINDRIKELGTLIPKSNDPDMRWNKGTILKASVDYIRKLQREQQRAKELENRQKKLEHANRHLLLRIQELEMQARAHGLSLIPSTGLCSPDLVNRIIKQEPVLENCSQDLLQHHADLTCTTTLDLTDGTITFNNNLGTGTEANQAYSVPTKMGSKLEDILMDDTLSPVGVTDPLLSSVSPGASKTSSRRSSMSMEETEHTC

[11] = system: Escherichia coli; experiment: microbe, parasite or virus in culture
[12] = system: Escherichia coli; experiment: microbe, parasite or virus in culture; remark: listed apart in the source
[13] = system: Jurkat; experiment: SAR Analysis of small molecule inhibitors of […] specific antigen receptor-induced NF-kB activation in a Jurkat cell line using a luminescence assay - Set 3. [Related pubchem assays (depositor defined):AID435022, AID435025, AID465]; type: functional, cell-based; conditions: Homo sapiens
[14] = system: HEK293; experiment: SAR Analysis of small molecule inhibitors of B-cell specific antigen receptor-induced NF-kB activation in a HEK-293T cell line using a luminescence assay - Set 2. [Related pubchem assays (depositor defined):AID435022, AID435025, AID489021]; type: functional, cell-based; conditions: Homo sapiens
[15] = system: HEK293; experiment: cytotoxicity in HEK293T NF-kB-Luc cells, SAR follow-up, cytotoxicity control for NF-kB activator project, cell-based, resazurin fluorescence (AID 493251); type: functional; conditions: Homo sapiens
[16] = biological target: T2, Delta-type opioid receptor (Homo sapiens, UniProt P41143); experiment: HTS Image-Based Screen for Antagonists of the DOR Receptor. [Related pubchem assays (depositor defined):AID1777, AID1785, AID1786, AID2133]; type: functional
T2 sequence (P41143 whole entry): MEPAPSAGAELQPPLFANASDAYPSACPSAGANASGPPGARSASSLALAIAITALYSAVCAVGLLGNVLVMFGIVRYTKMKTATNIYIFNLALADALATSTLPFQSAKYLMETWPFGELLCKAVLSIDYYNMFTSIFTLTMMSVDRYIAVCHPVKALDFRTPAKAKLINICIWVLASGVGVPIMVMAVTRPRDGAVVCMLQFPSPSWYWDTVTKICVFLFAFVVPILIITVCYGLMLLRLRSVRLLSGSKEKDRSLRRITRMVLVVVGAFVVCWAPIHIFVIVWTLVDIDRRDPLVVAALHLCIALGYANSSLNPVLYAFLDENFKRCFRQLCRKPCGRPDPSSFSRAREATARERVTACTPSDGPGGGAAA

[17] = biological target: Mu-type opioid receptor (Homo sapiens, UniProt P35372); experiment: HTS Image-Based Screen for Agonists of the MOR Receptor. [Related pubchem assays (depositor defined):AID1777, AID1785, AID1786, AID2133]; type: functional;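 further: imaging of beta-arrestin GFP recruitment into spots after receptor activation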
Chain of Mu-type opioid receptor (P35372 whole entry): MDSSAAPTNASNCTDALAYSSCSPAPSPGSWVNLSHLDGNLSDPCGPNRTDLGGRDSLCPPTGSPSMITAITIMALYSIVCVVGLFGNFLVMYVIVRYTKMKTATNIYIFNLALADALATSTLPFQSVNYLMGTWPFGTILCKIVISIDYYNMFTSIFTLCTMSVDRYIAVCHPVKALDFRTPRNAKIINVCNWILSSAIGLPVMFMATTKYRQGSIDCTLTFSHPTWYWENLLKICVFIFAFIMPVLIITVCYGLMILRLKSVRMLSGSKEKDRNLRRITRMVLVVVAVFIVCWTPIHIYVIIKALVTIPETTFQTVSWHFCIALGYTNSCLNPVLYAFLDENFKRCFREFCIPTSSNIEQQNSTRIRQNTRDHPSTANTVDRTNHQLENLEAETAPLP

[18] = system: Streptococcus sp. 'group A'; experiment: growth inhibition of control SK(-) GAS strain, dose response, counter-screen for streptokinase expression inhibitor project, luminescence, kanamycin, BacTiterGlo, confirmation (AID 1900); type: functional, organism-based
[19] = biological target: T2, Delta-type opioid receptor; experiment: HTS Image-Based Screen for Agonists of the DOR Receptor. [Related pubchem assays (depositor defined):AID1777, AID1786, AID2133]; type: functional
[20] = biological target: T3, Streptokinase A (Streptococcus pyogenes serotype M1, UniProt P10520); experiment: S. pyogenes streptokinase expression inhibitors, potency, dose response, plasminogen activation absorbance, OD405 (AID 1914); type: functional, Streptococcus pyogenes M1 GAS;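 further: secreted streptokinase activity via plasminogen activation per viability signal from cell pellet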
T3 sequence (P10520 whole entry): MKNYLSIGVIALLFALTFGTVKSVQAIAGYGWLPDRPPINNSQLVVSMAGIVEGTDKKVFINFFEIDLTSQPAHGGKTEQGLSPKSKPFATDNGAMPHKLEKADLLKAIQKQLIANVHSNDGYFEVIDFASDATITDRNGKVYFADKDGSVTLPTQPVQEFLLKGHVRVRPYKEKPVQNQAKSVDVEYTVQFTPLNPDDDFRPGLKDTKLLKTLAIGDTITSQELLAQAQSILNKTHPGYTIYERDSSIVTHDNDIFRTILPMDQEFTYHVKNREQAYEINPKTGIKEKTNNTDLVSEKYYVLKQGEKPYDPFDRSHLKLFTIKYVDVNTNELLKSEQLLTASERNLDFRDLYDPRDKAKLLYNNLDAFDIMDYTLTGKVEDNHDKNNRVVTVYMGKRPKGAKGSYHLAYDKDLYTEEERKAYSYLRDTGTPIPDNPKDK

[21] = growth suppression of PTEN-null colon cells, dose response, cell-based, HCT116 PTEN knockout (AID 1047); type: functional;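 further: HCT116 colon tumor cells with PTEN knocked out; cells exposed to compound for 60 hours before readout; potency for loss of cell viability measured by luminescence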
[22] = biological target: T4, Kappa-type opioid receptor (Homo sapiens, UniProt P41145); type: functional
T4 sequence (P41145 whole entry): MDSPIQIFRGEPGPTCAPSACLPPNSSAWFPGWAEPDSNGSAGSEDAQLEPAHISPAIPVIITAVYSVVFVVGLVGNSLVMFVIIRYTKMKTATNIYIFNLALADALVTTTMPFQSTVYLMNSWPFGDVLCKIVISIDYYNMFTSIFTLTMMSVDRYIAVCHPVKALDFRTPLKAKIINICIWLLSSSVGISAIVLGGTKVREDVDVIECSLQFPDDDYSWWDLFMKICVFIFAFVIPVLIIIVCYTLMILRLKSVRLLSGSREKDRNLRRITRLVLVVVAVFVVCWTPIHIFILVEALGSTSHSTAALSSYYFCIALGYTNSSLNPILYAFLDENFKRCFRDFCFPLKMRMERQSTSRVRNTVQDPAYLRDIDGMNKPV

[23] = biological target: Beta-galactosidase (Escherichia coli, UniProt Q8VNN2); type: functional
Chain of Beta-galactosidase (Q8VNN2 whole entry): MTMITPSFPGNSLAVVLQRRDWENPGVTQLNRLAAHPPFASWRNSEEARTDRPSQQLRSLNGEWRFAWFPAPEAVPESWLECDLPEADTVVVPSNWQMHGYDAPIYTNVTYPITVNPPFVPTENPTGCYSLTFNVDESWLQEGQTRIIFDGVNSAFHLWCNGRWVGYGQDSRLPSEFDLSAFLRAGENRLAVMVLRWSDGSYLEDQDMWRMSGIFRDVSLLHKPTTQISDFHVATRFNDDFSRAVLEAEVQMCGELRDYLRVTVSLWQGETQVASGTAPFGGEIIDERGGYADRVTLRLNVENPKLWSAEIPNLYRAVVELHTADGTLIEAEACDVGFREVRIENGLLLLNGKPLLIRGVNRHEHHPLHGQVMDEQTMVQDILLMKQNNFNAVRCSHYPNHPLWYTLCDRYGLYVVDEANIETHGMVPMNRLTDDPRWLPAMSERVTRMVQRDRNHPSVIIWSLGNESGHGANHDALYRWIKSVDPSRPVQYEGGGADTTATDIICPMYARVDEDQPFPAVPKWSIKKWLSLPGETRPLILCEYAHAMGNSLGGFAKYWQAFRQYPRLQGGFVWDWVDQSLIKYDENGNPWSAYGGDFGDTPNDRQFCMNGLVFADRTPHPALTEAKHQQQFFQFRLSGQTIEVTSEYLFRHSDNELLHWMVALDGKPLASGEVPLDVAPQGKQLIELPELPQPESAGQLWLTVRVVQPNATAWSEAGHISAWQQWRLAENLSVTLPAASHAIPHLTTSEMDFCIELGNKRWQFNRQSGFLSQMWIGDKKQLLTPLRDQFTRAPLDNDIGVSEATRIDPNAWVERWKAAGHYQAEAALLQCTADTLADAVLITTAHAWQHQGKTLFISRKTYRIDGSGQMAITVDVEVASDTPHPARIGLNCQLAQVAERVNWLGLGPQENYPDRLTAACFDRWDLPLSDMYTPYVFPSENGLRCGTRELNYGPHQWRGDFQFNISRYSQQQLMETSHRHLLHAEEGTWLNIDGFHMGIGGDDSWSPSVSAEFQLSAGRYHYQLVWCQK

[24] = growth suppression of beta-catenin-knockout colon cells, dose response, cell-based, HCT116, human colon tumor (AID 1045); type: functional;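 further: HCT116 colon tumor cells with beta catenin knocked out; cells exposed to compound for 60 hours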
[25] = biological target: T4, Kappa-type opioid receptor; type: functional; remark: listed apart in the source
[26] = system: Streptococcus; experiment: Group A Streptococcus viability loss, dose response, counter-screen for streptokinase expression inhibitor project, luminescence, BacTiterGlo (AID 1915); type: functional, organism-based;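 further: potency for reduction of bacterial viability or growth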
[27] = cytotoxicity in HEK-293T cells, dose response, cytotoxicity control for TCR NF-kB inhibitor project, luminescence, T-cell screen hits (AID 489026); type: functional, cell-based;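 further: cells exposed to compound about 14 hours before the viability readout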
[28] = system: CHO; experiment: cytotoxicity in TLR9-MyD88 CHO cells, dose response, cytotoxicity control for TLR9-MyD88 binding inhibitor project, cell-based, luminescence (AID 588339); type: functional, hamster; conditions: Cricetulus griseus;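 further: CHO cells stably coexpressing TLR9 and MyD88 fusions from primary screen; compound exposure lasted 48 hours before viability readout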
[29] = biological target: Beta Lactamase (Pseudomonas aeruginosa, UniProt Q932Y6); experiment: beta-lactamase reporter inhibitor potency, dose response, artefact control for TLR9-MyD88 binding inhibitor project, BLA reporter cells, FRET fluorescence (AID 588341); type: cell-based;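 further: cell based assay in CHO-K1 cells stably expressing beta-lactamase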
Chain of Beta Lactamase (Q932Y6 whole entry): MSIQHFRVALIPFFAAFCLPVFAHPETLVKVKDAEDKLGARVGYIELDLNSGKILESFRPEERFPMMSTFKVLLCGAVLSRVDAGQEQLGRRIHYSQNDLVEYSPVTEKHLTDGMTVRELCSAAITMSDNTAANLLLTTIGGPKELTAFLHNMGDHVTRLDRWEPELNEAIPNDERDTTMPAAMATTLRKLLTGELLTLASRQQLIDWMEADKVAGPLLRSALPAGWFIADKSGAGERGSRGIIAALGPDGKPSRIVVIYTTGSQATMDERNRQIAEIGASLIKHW

[30] = Shn3 3'UTR reporter inhibitors, dose response, cell-based, Clone20 osteoblasts, firefly luciferase, cherry-picked (AID 624132); type: functional;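 further: firefly luciferase luminescence from reporter carrying the Shn3 3'UTR in osteoblasts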
[31] = HepG2 cell cytotoxicity, dose response, cytotoxicity control for Shn3 inhibitor project, CellTiter-Glo, cherry-picked (AID 624134); type: functional, cell-based
[32] = control 3'UTR Renilla luciferase suppression, dose response, counter-screen for Shn3 inhibitor project, cell-based, Clone20-Shn3RL, cherry-picked (AID 624133); type: functional
[33] = biological target: T5, fMet-Leu-Phe receptor (Homo sapiens, UniProt P21462); experiment: FPR ligands, dose response (AID 519); type: functional
T5 sequence (P21462 whole entry): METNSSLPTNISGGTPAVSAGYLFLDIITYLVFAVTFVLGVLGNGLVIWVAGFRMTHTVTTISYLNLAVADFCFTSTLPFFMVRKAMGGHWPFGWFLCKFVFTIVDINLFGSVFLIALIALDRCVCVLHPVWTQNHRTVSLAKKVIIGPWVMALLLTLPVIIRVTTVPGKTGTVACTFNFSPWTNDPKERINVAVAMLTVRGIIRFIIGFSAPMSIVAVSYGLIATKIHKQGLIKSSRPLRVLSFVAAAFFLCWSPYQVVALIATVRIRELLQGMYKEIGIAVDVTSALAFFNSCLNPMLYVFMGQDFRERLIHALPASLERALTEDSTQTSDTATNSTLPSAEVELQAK

Chain of Phospholipase D1 (Q13393 whole entry): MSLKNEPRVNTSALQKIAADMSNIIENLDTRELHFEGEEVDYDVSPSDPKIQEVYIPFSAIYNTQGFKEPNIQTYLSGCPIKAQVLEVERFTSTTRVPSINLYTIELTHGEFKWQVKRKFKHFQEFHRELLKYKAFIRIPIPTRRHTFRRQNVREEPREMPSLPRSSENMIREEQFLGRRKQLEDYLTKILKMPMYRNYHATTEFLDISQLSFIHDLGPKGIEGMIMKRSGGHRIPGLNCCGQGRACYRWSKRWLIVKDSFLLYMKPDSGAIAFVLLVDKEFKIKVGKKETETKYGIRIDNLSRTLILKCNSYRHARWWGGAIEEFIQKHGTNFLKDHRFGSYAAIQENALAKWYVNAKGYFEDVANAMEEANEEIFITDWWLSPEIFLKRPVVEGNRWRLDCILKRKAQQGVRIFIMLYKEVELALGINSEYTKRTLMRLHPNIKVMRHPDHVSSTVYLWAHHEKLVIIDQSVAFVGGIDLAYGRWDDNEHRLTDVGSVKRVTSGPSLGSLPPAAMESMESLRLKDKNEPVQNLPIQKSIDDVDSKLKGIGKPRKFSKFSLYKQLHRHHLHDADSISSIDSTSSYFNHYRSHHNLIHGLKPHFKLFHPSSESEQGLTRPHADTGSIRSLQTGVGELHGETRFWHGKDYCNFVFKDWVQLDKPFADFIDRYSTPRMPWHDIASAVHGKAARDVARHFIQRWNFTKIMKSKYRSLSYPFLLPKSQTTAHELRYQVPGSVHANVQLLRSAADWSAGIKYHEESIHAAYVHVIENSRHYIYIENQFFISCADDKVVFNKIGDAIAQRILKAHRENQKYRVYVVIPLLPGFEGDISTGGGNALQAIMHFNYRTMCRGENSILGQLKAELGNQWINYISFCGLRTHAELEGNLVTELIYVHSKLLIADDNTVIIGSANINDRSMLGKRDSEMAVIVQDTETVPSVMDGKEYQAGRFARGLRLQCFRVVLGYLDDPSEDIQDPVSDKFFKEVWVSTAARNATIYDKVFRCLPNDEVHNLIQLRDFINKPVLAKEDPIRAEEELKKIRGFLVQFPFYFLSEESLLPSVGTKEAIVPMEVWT

CC(C)[C@@H](CN1CCC2(CC1)C(=O)NCN2c1ccccc1)NC(=O)c1cnc2ccccc2c1
active: IC50 [1] 0.09 µM | IC50 [2] 0.25 µM

COc1cc([N+](=O)[O-])cc(/C=N/NC(=O)c2ccc(NC(=O)c3ccc(C)cc3)cc2)c1O
inconclusive: EC50 [3] 1.01 µM
inactive: IC50 [9] > 80 µM
active: EC50 [4] 2.62 µM | EC50 [5] 2.62 µM | EC50 [6] 1.88 µM | EC50 [7] 1.49 µM | IC50 [8] 6.36 µM | AC50 [10] 1.55 µM

CCC[C@@H]1C[C@@]1(CCC)[C@@H](NC(=O)c1ccccc1)c1ccc(C(=O)OC)cc1
active: AC50 [11] 21.2 µM
inactive: AC50 [12] > 380 µM

CCOc1ccc(-c2nc(CSCC(=O)NCc3cccnc3)c(C)o2)cc1
inactive: IC50 [13] 72.6 µM | IC50 [14] 24.2 µM | IC50 [15] 65 µM

O=S(=O)(Nc1cccc2ncccc12)c1cccs1
inactive: IC50 [16] > 32 µM | EC50 [17] > 32 µM | EC50 [19] > 32 µM | EC50 [23] > 31.5 µM | IC50 [27] > 80 µM | IC50 [29] > 49.7 µM | Ki [33] > 66.7 µM
> 150 µM (not active): EC50 [20]
> 32 µM: IC50 [25]
active: EC50 [4] 15.3 µM | EC50 [18] 3.58 µM | EC50 [5] 7.05 µM | EC50 [6] 11.8 µM | EC50 [21] 1.97 µM | IC50 [22] 2.64 µM | EC50 [24] 1.62 µM | EC50 [26] 7.13 µM | IC50 [28] 4.34 µM | AC50 [30] 4.3 µM | AC50 [31] 6.33 µM | AC50 [32] 13.2 µM
